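1) Cells in 96-well plates. 2) Compound, 48 h, 5 concentrations. 3) Linear interpolation between surrounding doses. 4) Unreached endpoint = highest concentration. GI50: concentration for 50% inhibition of growth.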 Active and inactive are the calls of the source. Cut-off read from the data, not from the text of the source: active = GI50 up to about 1.1 µM and inactive = higher.
Experiments:
Experiment in all cases: DTP human tumour cell line panel, 48 h
[1] = test system: 786-0
[2] = test system: A498
[3] = test system: A549
[4] = test system: ACHN
[5] = test system: CAKI-1
[6] = test system: CCRF-CEM
[7] = test system: COLO 205
[8] = test system: DLD-1
[9] = test system: DMS-114
[10] = test system: DMS-273
[11] = test system: EKVX
[12] = test system: HCC 2998
[13] = test system: HCT-116
[14] = test system: HCT-15
[15] = test system: HOP-18
[16] = test system: HOP-62
[17] = test system: HOP-92
[18] = test system: HT-29
[19] = test system: IGROV-1
[20] = test system: K562
[21] = test system: KM-20L2
[22] = test system: KM12
[23] = test system: LOX IMVI
[24] = test system: LXFL 529
[25] = test system: M14
[26] = test system: M19-MEL
[27] = test system: MOLT-4
[28] = test system: Malme-3M
[29] = test system: NCI-H226
[30] = test system: NCI-H23
[31] = test system: NCI-H460
[32] = test system: NCI-H522
[33] = test system: OVCAR-3
[34] = test system: OVCAR-4
[35] = test system: OVCAR-5
[36] = test system: OVCAR-8
[37] = test system: RPMI-8226
[38] = test system: RXF 393
[39] = test system: RXF 631
[40] = test system: SF-268
[41] = test system: SF-295
[42] = test system: SF-539
[43] = test system: SK-MEL-28
[44] = test system: SK-MEL-2
[45] = test system: SK-MEL-5
[46] = test system: SK-OV-3
[47] = test system: SN12C
[48] = test system: SNB-19
[49] = test system: SNB-75
[50] = test system: SNB-78
[51] = test system: SR
[52] = test system: SW-620
[53] = test system: TK-10
[54] = test system: U-251
[55] = test system: UACC-257
[56] = test system: UACC-62
[57] = test system: UO-31
[58] = test system: XF498
[59] = test system: HL-60

With `C=C(C)[C@H]1CC[C@@]2(C)C(C1)[C@H](C)CC[C@@H]2O` (stereo not given in full) the GI50 [1] was > 100 µM (inactive), the GI50 [2] was > 100 µM (inactive) and the GI50 [3] was > 100 µM (inactive). The GI50 [4] was > 100 µM (inactive), the GI50 [5] was > 100 µM (inactive) and the GI50 [6] was > 100 µM (inactive). The GI50 [7] was > 100 µM (inactive), the GI50 [8] was > 100 µM (inactive) and the GI50 [9] was > 100 µM (inactive). The GI50 [10] was > 100 µM (inactive), the GI50 [11] was > 100 µM (inactive) and the GI50 [12] was > 100 µM (inactive). The GI50 [13] was > 100 µM (inactive), the GI50 [14] was over 100 µM and the GI50 [15] was > 100 µM (inactive). The GI50 [16] was > 100 µM (inactive), the GI50 [17] was > 100 µM (inactive) and the GI50 [18] was 70.5 µM (inactive). The GI50 [19] was > 100 µM (inactive), the GI50 [20] was > 100 µM (inactive) and the GI50 [21] was > 100 µM (inactive). The GI50 [22] was > 100 µM (inactive), the GI50 [23] was > 100 µM (inactive) and the GI50 [24] was > 100 µM (inactive). For the same compound, the GI50 [25] was > 100 µM (inactive), the GI50 [26] was > 100 µM (inactive) and the GI50 [27] was 88.3 µM (inactive). For the same compound, the GI50 [28] was > 100 µM (inactive), the GI50 [29] was > 100 µM (inactive) and the GI50 [30] was > 100 µM (inactive). For the same compound, the GI50 [31] was > 100 µM (inactive), the GI50 [32] was 47 µM (inactive) and the GI50 [33] was > 100 µM (inactive). For the same compound, the GI50 [34] was > 100 µM (inactive), the GI50 [35] was > 100 µM (inactive) and the GI50 [36] was > 100 µM (inactive). The GI50 [37] was > 100 µM (inactive), the GI50 [38] was > 100 µM (inactive) and the GI50 [39] was > 100 µM (inactive). The GI50 [40] was > 100 µM (inactive), the GI50 [41] was > 100 µM (inactive) and the GI50 [42] was > 100 µM (inactive). For the same compound, the GI50 [43] was > 100 µM (inactive), the GI50 [44] was > 100 µM (inactive) and the GI50 [45] was > 100 µM (inactive). The GI50 [46] was > 100 µM (inactive), the GI50 [47] was > 100 µM (inactive) and the GI50 [48] was > 100 µM (inactive). For the same compound, the GI50 [49] was > 100 µM (inactive), the GI50 [50] was > 100 µM (inactive) and the GI50 [51] was > 100 µM (inactive). For the same compound, the GI50 [52] was > 100 µM (inactive), the GI50 [53] was > 100 µM (inactive) and the GI50 [54] was > 100 µM (inactive). For the same compound, the GI50 [55] was > 100 µM (inactive), the GI50 [56] was > 100 µM (inactive) and the GI50 [57] was > 100 µM (inactive). For the same compound, the GI50 [58] was > 100 µM (inactive).

In the case of `N#C/N=C(\N)NCCO`, the GI50 [1] is reported as 38.1 µM (inactive), the GI50 [2] is reported as > 100 µM (inactive) and the GI50 [3] is reported as > 100 µM (inactive). The GI50 [4] was > 100 µM (inactive), the GI50 [5] was > 100 µM (inactive) and the GI50 [7] was 52.2 µM (inactive). The GI50 [8] was > 100 µM (inactive), the GI50 [9] was 75.3 µM (inactive) and the GI50 [10] was > 100 µM (inactive). The GI50 [11] was > 100 µM (inactive), the GI50 [12] was > 100 µM (inactive) and the GI50 [13] was > 100 µM (inactive). For the same compound, the GI50 [14] was 38.7 µM, the GI50 [59] was > 100 µM (inactive) and the GI50 [15] was > 100 µM (inactive). The GI50 [16] was > 100 µM (inactive), the GI50 [17] was > 100 µM (inactive) and the GI50 [18] was > 100 µM (inactive). The GI50 [19] was > 100 µM (inactive), the GI50 [20] was > 100 µM (inactive) and the GI50 [21] was > 100 µM (inactive). For the same compound, the GI50 [22] was > 100 µM (inactive), the GI50 [24] was > 100 µM (inactive) and the GI50 [25] was > 100 µM (inactive). For the same compound, the GI50 [26] was 40.3 µM (inactive), the GI50 [27] was > 100 µM (inactive) and the GI50 [28] was > 100 µM (inactive). For the same compound, the GI50 [29] was > 100 µM (inactive), the GI50 [30] was > 100 µM (inactive) and the GI50 [31] was > 100 µM (inactive). The GI50 [32] was > 100 µM (inactive), the GI50 [33] was > 100 µM (inactive) and the GI50 [34] was > 100 µM (inactive). For the same compound, the GI50 [35] was > 100 µM (inactive), the GI50 [36] was > 100 µM (inactive) and the GI50 [37] was > 100 µM (inactive). The GI50 [38] was 16.6 µM (inactive), the GI50 [39] was > 100 µM (inactive) and the GI50 [40] was > 100 µM (inactive). The GI50 [41] was > 100 µM (inactive), the GI50 [42] was > 100 µM (inactive) and the GI50 [43] was > 100 µM (inactive). The GI50 [44] was > 100 µM (inactive), the GI50 [45] was > 100 µM (inactive) and the GI50 [46] was > 100 µM (inactive). The GI50 [47] was > 100 µM (inactive), the GI50 [48] was > 100 µM (inactive) and the GI50 [49] was > 100 µM (inactive). The GI50 [50] was > 100 µM (inactive), the GI50 [51] was 30.7 µM (inactive) and the GI50 [52] was 18.3 µM (inactive). For the same compound, the GI50 [53] was > 100 µM (inactive), the GI50 [54] was 37.2 µM (inactive) and the GI50 [55] was > 100 µM (inactive). For the same compound, the GI50 [56] was > 100 µM (inactive), the GI50 [57] was > 100 µM (inactive) and the GI50 [58] was > 100 µM (inactive).

— ChEMBL document CHEMBL1201862, “PubChem BioAssay data set” (2004)
